Source: patent publication US20220009920A1 (GB005, Inc., priority 2020, published 2022)

Columns and labels:
Test in all cases: Large panel kinase profiling
Assay type in all cases: biochemical
Details in all cases: 1 μM test article, 1 mM ATP
[1] = molecular target: T1, CDK5/P25 (Homo sapiens, UniProt Q00535)
T1 construct: AssayQuant Technologies, Inc. (ran the panel)
Summary of the method: (§1)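 At 30° C., kinases turned over a CSox-Sensor peptide substrate with 1 mM ATP while 1 μM test article was present. Progress was followed by kinetic fluorescence readings.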

[2] = molecular target: T2, GRK6 (Homo sapiens, UniProt P43250)
T2 construct: AssayQuant Technologies, Inc. (service provider)
T2 sequence (P43250 whole entry, species assumed): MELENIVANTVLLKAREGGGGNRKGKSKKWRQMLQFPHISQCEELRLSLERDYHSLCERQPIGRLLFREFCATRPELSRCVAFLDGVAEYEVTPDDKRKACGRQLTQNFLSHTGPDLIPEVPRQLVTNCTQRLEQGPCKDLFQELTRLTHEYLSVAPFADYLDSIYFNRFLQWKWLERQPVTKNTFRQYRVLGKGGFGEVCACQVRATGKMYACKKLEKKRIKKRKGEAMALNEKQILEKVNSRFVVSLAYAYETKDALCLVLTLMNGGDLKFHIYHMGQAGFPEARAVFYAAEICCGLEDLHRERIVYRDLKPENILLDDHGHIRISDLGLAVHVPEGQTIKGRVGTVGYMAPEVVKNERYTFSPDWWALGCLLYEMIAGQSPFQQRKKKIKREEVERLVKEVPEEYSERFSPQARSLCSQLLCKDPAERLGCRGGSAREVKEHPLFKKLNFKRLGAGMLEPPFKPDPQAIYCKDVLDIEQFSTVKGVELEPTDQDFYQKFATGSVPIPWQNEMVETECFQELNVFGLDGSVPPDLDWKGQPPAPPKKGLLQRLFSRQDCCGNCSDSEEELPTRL
Summary of the method: as §1

[3] = molecular target: T3, STK17A/DRAK1 (Homo sapiens, UniProt Q9UEE5)
T3 construct: AssayQuant Technologies, Inc. (contract assay)
T3 sequence (Q9UEE5 1-414): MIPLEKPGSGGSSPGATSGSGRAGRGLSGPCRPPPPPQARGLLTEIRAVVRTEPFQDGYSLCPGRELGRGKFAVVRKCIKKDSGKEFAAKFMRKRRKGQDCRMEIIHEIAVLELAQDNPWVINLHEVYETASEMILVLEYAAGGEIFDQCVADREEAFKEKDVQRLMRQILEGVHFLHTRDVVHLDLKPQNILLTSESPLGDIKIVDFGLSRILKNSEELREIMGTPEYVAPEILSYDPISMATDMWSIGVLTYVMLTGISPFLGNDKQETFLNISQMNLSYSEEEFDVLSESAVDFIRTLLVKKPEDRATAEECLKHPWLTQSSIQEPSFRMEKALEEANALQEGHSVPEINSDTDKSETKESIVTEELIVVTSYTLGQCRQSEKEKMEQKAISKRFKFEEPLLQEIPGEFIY
Summary of the method: as §1

[4] = molecular target: T4, PRKD2 (Homo sapiens, UniProt Q9BZL6)
T4 sequence (Q9BZL6 1-878): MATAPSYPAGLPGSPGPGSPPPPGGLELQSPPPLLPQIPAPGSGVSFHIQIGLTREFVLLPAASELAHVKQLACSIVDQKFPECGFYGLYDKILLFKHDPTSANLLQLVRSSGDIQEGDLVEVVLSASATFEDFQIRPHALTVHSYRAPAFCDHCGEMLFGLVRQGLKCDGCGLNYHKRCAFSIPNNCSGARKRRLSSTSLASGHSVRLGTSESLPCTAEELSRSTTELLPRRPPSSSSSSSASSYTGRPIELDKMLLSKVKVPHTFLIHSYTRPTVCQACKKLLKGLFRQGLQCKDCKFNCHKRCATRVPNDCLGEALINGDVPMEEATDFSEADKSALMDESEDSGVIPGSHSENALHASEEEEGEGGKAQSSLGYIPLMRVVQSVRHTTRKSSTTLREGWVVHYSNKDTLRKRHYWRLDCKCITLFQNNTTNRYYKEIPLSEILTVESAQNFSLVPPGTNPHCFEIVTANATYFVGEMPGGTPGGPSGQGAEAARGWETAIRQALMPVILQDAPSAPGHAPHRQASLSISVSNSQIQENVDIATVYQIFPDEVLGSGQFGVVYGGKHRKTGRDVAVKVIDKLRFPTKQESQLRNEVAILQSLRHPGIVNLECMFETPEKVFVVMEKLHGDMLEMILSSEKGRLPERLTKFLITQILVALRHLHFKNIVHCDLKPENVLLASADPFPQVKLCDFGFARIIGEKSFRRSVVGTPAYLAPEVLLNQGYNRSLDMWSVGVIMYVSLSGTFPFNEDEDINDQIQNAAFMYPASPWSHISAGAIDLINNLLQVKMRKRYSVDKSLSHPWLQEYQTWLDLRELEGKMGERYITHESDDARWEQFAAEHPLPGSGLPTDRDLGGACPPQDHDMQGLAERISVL
Summary of the method: as §1

[5] = molecular target: T5, IKBKE/IKKE (Homo sapiens, UniProt Q14164)
T5 construct: AssayQuant Technologies, Inc. (service provider)
T5 sequence (Q14164 1-716): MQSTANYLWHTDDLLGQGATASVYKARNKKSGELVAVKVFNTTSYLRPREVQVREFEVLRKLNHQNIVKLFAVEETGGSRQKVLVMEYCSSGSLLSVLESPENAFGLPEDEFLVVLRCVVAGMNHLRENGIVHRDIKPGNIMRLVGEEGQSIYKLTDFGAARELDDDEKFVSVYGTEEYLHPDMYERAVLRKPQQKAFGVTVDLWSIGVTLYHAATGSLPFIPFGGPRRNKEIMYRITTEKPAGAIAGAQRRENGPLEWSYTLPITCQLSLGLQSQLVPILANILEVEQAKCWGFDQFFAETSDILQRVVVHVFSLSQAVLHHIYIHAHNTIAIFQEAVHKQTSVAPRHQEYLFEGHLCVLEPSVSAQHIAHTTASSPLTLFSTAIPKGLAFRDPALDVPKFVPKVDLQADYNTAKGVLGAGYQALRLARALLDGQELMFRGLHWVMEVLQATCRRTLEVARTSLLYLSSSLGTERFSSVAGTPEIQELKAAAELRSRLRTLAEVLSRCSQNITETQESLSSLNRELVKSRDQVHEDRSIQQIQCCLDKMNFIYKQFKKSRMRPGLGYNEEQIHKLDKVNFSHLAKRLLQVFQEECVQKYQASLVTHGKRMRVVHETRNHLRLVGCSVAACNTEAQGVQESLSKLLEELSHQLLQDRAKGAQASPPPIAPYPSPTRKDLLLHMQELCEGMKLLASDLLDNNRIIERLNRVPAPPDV
Summary of the method: as §1

[6] = molecular target: T6, SK3 (Homo sapiens, UniProt Q9Y2K2)
T6 construct: AssayQuant Technologies, Inc. (contract assay)
T6 sequence (Q9Y2K2 whole entry): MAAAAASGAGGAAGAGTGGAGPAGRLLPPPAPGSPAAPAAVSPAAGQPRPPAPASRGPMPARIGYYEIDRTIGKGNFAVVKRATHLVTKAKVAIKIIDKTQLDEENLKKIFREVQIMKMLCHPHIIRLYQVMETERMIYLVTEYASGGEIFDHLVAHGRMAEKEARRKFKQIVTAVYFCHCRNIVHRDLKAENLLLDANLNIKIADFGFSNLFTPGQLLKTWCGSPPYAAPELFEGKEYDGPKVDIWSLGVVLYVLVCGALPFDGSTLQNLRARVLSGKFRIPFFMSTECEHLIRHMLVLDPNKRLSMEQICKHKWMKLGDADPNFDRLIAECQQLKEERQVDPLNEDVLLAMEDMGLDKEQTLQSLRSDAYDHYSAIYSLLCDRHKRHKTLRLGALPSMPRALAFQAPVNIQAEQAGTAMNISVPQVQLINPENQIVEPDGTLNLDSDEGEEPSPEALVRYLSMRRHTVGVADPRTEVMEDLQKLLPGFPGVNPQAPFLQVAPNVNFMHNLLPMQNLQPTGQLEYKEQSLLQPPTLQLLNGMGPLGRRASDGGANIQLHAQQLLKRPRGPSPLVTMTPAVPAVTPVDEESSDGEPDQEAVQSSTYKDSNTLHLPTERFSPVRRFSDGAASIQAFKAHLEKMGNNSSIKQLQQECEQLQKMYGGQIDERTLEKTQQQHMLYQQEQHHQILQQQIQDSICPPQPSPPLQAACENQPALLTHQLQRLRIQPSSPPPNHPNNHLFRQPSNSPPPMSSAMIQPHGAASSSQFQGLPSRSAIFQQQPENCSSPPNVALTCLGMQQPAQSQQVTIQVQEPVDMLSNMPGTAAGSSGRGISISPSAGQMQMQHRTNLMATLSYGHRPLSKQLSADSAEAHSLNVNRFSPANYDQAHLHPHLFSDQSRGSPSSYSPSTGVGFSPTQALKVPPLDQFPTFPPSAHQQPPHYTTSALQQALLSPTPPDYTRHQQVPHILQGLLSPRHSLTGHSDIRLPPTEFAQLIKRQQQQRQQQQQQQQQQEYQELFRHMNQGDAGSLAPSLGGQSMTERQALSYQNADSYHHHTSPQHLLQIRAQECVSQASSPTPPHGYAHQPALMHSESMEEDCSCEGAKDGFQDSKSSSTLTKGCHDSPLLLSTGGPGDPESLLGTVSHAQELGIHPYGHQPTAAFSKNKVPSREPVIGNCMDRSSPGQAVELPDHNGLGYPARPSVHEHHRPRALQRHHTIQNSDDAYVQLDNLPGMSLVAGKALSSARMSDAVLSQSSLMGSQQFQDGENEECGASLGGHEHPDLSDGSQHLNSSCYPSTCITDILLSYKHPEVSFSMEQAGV
Summary of the method: as §1

[7] = molecular target: T7, JAK2(JH1) (Homo sapiens, UniProt O60674)
T7 construct: JAK2(JH1)
T7 sequence (O60674 849-1124 limits assumed, species assumed): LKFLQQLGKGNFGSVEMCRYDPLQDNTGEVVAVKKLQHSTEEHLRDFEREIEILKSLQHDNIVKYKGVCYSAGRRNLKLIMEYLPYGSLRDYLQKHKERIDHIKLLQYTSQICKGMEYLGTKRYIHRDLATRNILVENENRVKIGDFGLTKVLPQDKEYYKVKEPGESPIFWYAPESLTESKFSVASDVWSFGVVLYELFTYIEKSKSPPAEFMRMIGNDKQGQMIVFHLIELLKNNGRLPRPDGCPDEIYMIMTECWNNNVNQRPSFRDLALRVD
Summary of the method: as §1

[8] = molecular target: T8, CDC42BPA/MRCKA (Homo sapiens, UniProt Q5VT25)
T8 construct: AssayQuant Technologies, Inc. (ran the panel)
Summary of the method: as §1

[9] = molecular target: T9, CSK (Homo sapiens, UniProt P41240)
T9 construct: AssayQuant Technologies, Inc. (service laboratory)
T9 sequence (P41240 whole entry, species assumed): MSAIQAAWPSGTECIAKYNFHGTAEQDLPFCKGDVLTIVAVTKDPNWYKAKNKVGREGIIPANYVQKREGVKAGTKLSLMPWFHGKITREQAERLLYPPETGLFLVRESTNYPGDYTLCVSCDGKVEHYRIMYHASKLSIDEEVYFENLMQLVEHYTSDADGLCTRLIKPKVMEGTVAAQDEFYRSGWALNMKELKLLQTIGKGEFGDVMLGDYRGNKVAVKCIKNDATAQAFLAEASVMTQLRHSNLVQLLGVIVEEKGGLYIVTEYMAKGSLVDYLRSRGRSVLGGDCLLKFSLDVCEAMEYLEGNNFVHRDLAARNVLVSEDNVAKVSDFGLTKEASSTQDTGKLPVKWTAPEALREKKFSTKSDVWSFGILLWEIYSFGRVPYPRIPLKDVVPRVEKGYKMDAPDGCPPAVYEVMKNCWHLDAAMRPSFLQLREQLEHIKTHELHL
Summary of the method: as §1

[10] = molecular target: T10, TNIK (Homo sapiens, UniProt Q9UKE5)
T10 construct: AssayQuant Technologies, Inc. (contract laboratory that ran the panel)
T10 sequence (Q9UKE5 whole entry, species assumed): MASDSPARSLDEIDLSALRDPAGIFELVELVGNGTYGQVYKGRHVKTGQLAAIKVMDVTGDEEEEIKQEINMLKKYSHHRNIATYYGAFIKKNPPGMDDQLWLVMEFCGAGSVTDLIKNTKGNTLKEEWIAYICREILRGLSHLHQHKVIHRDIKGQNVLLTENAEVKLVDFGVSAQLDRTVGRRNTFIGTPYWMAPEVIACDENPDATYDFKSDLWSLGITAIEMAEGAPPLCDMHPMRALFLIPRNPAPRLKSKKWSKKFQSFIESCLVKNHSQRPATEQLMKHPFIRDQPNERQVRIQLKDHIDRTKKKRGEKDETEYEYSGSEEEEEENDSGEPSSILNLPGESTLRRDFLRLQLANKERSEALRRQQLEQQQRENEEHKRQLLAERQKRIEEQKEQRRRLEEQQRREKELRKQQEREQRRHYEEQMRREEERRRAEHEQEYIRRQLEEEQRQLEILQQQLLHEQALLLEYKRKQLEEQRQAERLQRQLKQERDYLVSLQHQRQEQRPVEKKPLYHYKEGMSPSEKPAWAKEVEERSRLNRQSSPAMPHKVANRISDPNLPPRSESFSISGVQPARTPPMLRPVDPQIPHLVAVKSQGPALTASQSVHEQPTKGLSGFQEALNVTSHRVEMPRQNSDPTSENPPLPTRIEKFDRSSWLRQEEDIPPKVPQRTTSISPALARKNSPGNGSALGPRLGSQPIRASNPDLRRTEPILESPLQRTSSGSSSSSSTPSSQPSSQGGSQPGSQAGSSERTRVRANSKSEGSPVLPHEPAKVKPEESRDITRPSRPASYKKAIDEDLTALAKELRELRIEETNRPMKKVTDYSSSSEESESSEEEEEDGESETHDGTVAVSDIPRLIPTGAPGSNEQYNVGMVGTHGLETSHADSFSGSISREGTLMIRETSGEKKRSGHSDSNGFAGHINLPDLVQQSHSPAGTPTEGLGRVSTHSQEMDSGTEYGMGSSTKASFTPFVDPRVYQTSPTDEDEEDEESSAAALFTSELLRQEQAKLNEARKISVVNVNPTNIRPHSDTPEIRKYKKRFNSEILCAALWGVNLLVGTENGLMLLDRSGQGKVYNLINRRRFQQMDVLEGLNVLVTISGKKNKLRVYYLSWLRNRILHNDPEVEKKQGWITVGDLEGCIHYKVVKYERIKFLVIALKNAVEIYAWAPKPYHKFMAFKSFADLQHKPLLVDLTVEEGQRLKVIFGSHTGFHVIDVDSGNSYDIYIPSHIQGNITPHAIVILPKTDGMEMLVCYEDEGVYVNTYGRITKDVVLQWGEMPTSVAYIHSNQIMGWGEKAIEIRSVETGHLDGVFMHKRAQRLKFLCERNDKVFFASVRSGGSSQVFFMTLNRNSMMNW
Summary of the method: as §1

T1 sequence (Q00535 whole entry, species assumed): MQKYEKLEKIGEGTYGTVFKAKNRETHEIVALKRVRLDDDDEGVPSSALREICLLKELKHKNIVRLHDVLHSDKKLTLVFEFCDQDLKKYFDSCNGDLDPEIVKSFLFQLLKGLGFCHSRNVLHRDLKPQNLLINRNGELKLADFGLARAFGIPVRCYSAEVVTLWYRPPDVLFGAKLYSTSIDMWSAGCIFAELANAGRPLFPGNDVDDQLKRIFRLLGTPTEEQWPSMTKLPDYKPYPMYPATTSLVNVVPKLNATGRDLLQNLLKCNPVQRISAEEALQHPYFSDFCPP
T1 sequence (Q15078 99-307 partner limits assumed, species assumed): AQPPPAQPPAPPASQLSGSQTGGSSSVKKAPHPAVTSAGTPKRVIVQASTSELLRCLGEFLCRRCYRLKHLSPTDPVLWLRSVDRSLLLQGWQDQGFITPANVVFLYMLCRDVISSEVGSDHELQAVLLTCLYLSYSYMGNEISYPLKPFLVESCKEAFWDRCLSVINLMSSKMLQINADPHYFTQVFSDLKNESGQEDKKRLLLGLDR

| Compound | inhibition at 1 µM [1] [%] | inhibition at 1 µM [2] [%] | inhibition at 1 µM [3] [%] | inhibition at 1 µM [4] [%] | inhibition at 1 µM [5] [%] | inhibition at 1 µM [6] [%] | inhibition at 1 µM [7] [%] | inhibition at 1 µM [8] [%] | inhibition at 1 µM [9] [%] | inhibition at 1 µM [10] [%] |
| --- | --- | --- | --- | --- | --- | --- | --- | --- | --- | --- |
| C=CC(=O)N1CCCC(c2c(F)cc(C(N)=O)c3[nH]c4c(c23)CCCCC4)C1 (single isomer, unassigned) [Compound 5-6] | -11.1 | 8 | 22.4 | -14.2 | 3.4 | 5.3 | 11.4 | -30.9 | -9.4 | 9.9 |
| C=CC(=O)N1CCC[C@@H](c2c(F)cc(C(N)=O)c3[nH]c4c(c23)CC2(CC4)CC2)C1 [Compound 6-2, (S)-5-(1-acryloylpiperidin-3-yl)-6-fluoro-1,2,4,9-tetrahydrospiro[carbazole-3,1′-cyclopropane]-8-carboxamide] | -13 | -3.1 | -33.9 | -32.9 | -18 | 14.7 | 10.3 | -16.2 | -6.4 | -29.3 |
| C=CC(=O)N1CCC[C@@H](c2c(F)cc(C(N)=O)c3[nH]c4c(c23)CCC4)C1 [Compound 10-2, (S)-8-(1-acryloylpiperidin-3-yl)-7-fluoro-1,2,3,4-tetrahydrocyclo-penta[b]indole-5-carboxamide] | 1.6 | -1.9 | -28 | -12.1 | -12.8 | 11.6 | -0.8 | 1.8 | -8.5 | -22.9 |
